Data set [1] addresses Adrenocorticotropic hormone receptor (Homo sapiens, UniProt Q01718).
Description: Displacement of [[125I]-Tyr23]-ACTH (1-39) from human MC2R incubated for 1.5 hrs by Topcount scintillation counting method
The nature of data set [2]: in vitro. Particulars: rat, liver microsomes.
Description: Stability in rat liver microsomes assessed as half life
A short description of data set [3]: in vitro. Particulars: human, liver microsomes. On the technique in general: Microsomes from liver hold many membrane-bound enzymes, among them those of drug oxidation.
Description: Stability in human liver microsomes assessed as half life
A short description of data set [4]: in vivo. To be noted: rat, po, 10 mg/kg.
The nature of data set [5]: in vivo. Particulars: rat, po, 10 mg/kg. This is another data set of the same source.
Data set [6] in a line: in vivo. Particulars: rat, po, 10 mg/kg. This is another data set of the same source.
Data set [7] can be described thus: in vivo. Particulars: rat, po, 10 mg/kg. This is another data set of the same source.
Description: AUClast in rat at 10 mg/kg, po
Data set [8] is described as follows: in vivo. To be noted: rat, po, 10 mg/kg. This is another data set of the same source.
Description: Half life in rat at 10 mg/kg, po
Data set [9] can be described thus: in vivo. To be noted: rat, iv, 5 mg/kg.
Description: Half life in rat at 5 mg/kg, iv
Data set [10] is described as follows: in vitro. To be noted: human, plasma.
Description: Plasma protein binding in human at 1 uM
The target of data set [11] is Cytochrome P450 2D6 (Homo sapiens, UniProt P10635).
Description: Time dependent inhibition of CYP2D6 (unknown origin)
Data set [12] in a line: in vivo. To be noted: rat, po, 5 mg/kg.
Description: AUClast in rat at 5 mg/kg, po
The target of data set [13] is Cytochrome P450 2C19 (Homo sapiens, UniProt P33261).
Description: Inhibition of CYP2C19 (unknown origin)
The nature of data set [14]: in vivo. Particulars: Sprague-Dawley, rat, plasma, po, 3 mg/kg.
Description: Drug concentration in Sprague-Dawley rat plasma at 3 mg/kg, po administered as single dose and stimulated with ACTH for 4 hrs measured after 1.5 hrs
Data set [15] has as its target Melanocortin receptor 3 (Homo sapiens, UniProt P41968).
A short description of data set [16]: in vivo. Particulars: dog, po, 5 mg/kg.
Description: Cmax in dog at 5 mg/kg, po
The target in data set [17] is Melanocortin receptor 5 (Homo sapiens, UniProt P33032).
Data set [18] is described as follows: in vitro. To be noted: dog, MDCK.
Description: Apparent permeability in MDCK cells
A short description of data set [19]: in vivo. Particulars: Sprague-Dawley, rat, plasma, po, 3 mg/kg. This is another data set of the same source.
Description: Drug concentration in Sprague-Dawley rat plasma at 3 mg/kg, po administered as single dose and stimulated with ACTH for 4 hrs measured after 0.5 hrs
Data set [20] deals with 5-hydroxytryptamine receptor 1B (Homo sapiens, UniProt P28222).
Description: Antagonist activity at 5-HT1B (unknown origin)
Data set [21] concerns the target Cytochrome P450 3A4 (Homo sapiens, UniProt P08684).
Description: Time dependent inhibition of CYP3A4 (unknown origin)
A short description of data set [22]: in vivo. To be noted: dog, po, 5 mg/kg. This is another data set of the same source.
Description: AUClast in dog at 5 mg/kg, po
Data set [23] in a line: in vivo. To be noted: dog, iv, 5 mg/kg.
Description: Volume of distribution at steady state in dog at 5 mg/kg, iv
The target in data set [24] is Melanocortin receptor 4 (Homo sapiens, UniProt P32245).
Data set [25] is described as follows: in vivo. Particulars: Sprague-Dawley, rat, plasma, po, 3 mg/kg. This is another data set of the same source.
Description: Drug concentration in Sprague-Dawley rat plasma at 3 mg/kg, po administered as single dose and stimulated with ACTH for 1 hr measured after 0.5 hr
Data set [26] concerns the target Cytochrome P450 2C9 (Homo sapiens, UniProt P11712).
Description: Inhibition of CYP2C9 (unknown origin)
Data set [27] is described as follows: in vivo. To be noted: Sprague-Dawley, rat, plasma, po, 30 mg/kg.
Description: Drug concentration in Sprague-Dawley rat plasma at 30 mg/kg, po administered as single dose and stimulated with ACTH for 1 hr measured after 0.5 hr
The nature of data set [28]: in vivo. To be noted: Sprague-Dawley, rat, plasma, po, 30 mg/kg. The source holds these as a separate data set.
Description: Drug concentration in Sprague-Dawley rat plasma at 30 mg/kg, po administered as single dose and stimulated with ACTH for 4 hrs measured after 1.5 hrs
Data set [29] in a line: in vivo. To be noted: Sprague-Dawley, rat, plasma, po, 3 mg/kg. This is another data set of the same source.
Description: Drug concentration in Sprague-Dawley rat plasma at 3 mg/kg, po administered as single dose and stimulated with ACTH for 24 hrs measured after 0.5 hrs
Data set [30] in a line: in vivo. To be noted: rat, po, 5 mg/kg. This is another data set of the same source.
Description: Oral bioavailability in rat at 5 mg/kg
Data set [31] is described as follows: in vitro. Particulars: dog, plasma.
Description: Plasma protein binding in dog at 1 uM
Data set [32] in a line: in vivo. To be noted: rat, iv, 5 mg/kg. The source holds these as a separate data set.
Description: Clearance in rat at 5 mg/kg, iv
Data set [33] is described as follows: in vivo. To be noted: rat, iv, 5 mg/kg. This is another data set of the same source.
Description: Volume of distribution at steady state in rat at 5 mg/kg, iv
Data set [34] is described as follows: in vivo. To be noted: Sprague-Dawley, rat, plasma, po, 30 mg/kg. The source holds these as a separate data set.
Description: Drug concentration in Sprague-Dawley rat plasma at 30 mg/kg, po administered as single dose and stimulated with ACTH for 24 hrs measured after 1.5 hrs
Data set [35] has as its target Melanocyte-stimulating hormone receptor (Homo sapiens, UniProt Q01726).
Data set [36] can be described thus: in vivo. To be noted: rat, po, 5 mg/kg. The source holds these as a separate data set.
Description: Cmax in rat at 5 mg/kg, po
Data set [37] concerns MDR1. Description: in vitro. To be noted: dog, MDCK-MDR1.
Description: Efflux ratio of apparent permeability across basolateral to apical over apical to basolateral in MDCK-MDR1 cells
Data set [38] in a line: in vivo. To be noted: dog, po, 5 mg/kg. This is another data set of the same source.
Description: Oral bioavailability in dog at 5 mg/kg
A short description of data set [39]: in vivo. Particulars: Sprague-Dawley, rat, plasma, po, 3 mg/kg. The source holds these as a separate data set.
Description: Drug concentration in Sprague-Dawley rat plasma at 3 mg/kg, po administered as single dose and stimulated with ACTH for 1 hr measured after 1.5 hrs
The nature of data set [40]: in vivo. To be noted: dog, iv, 5 mg/kg. This is another data set of the same source.
Description: Half life in dog at 5 mg/kg, iv
The target of data set [41] is L-type calcium channel (Homo sapiens, UniProt O60840+Q01668+Q13698+Q13936). Description: in vitro.
Description: Inhibition of L-type calcium channel (unknown origin) at 10 uM relative to control
The nature of data set [42]: in vivo. Particulars: dog, iv, 5 mg/kg. This is another data set of the same source.
Description: Clearance in dog at 5 mg/kg, iv
Data set [43] in a line: in vivo. To be noted: Sprague-Dawley, rat, plasma, po, 30 mg/kg. This is another data set of the same source.
Description: Drug concentration in Sprague-Dawley rat plasma at 30 mg/kg, po administered as single dose and stimulated with ACTH for 24 hrs measured after 0.5 hrs
A short description of data set [44]: in vivo. To be noted: Sprague-Dawley, rat, plasma, po, 30 mg/kg. This is another data set of the same source.
Description: Drug concentration in Sprague-Dawley rat plasma at 30 mg/kg, po administered as single dose and stimulated with ACTH for 4 hrs measured after 0.5 hrs
The nature of data set [45]: in vivo. To be noted: Sprague-Dawley, rat, plasma, po, 30 mg/kg. This is another data set of the same source.
Description: Drug concentration in Sprague-Dawley rat plasma at 30 mg/kg, po administered as single dose and stimulated with ACTH for 48 hrs measured after 0.5 hrs
Data set [46] can be described thus: in vitro. Particulars: rat, plasma.
Description: Plasma protein binding in rat at 1 uM
The nature of data set [47]: in vivo. Particulars: Sprague-Dawley, rat, plasma, po, 30 mg/kg. The source holds these as a separate data set.
Description: Drug concentration in Sprague-Dawley rat plasma at 30 mg/kg, po administered as single dose and stimulated with ACTH for 1 hr measured after 1.5 hrs

pIC50, pKi: −log10 of the molar value.

Adrenocorticotropic hormone receptor, sequence (Q01718 whole entry): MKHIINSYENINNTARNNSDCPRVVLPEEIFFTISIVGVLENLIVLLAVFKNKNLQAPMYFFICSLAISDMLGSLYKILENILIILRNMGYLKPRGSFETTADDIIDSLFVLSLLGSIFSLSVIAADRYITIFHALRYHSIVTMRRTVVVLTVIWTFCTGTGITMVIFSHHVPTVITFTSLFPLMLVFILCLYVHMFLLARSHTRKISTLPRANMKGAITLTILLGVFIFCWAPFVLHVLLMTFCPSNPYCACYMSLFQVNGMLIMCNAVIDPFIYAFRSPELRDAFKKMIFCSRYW
Cytochrome P450 2C19, sequence (P33261 whole entry): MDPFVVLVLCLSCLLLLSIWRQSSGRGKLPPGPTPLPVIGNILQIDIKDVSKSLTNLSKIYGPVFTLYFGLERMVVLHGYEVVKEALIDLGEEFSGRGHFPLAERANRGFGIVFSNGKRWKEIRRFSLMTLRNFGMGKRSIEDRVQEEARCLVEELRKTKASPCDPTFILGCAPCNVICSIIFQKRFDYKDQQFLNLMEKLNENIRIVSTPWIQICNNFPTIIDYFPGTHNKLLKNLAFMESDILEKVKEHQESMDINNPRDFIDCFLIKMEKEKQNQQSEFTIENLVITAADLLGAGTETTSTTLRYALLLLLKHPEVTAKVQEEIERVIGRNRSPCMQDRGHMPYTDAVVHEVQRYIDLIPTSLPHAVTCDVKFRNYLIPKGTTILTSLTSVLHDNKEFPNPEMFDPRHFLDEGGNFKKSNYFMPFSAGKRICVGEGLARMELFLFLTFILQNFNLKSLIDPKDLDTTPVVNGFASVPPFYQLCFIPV
Melanocyte-stimulating hormone receptor, sequence (Q01726 whole entry): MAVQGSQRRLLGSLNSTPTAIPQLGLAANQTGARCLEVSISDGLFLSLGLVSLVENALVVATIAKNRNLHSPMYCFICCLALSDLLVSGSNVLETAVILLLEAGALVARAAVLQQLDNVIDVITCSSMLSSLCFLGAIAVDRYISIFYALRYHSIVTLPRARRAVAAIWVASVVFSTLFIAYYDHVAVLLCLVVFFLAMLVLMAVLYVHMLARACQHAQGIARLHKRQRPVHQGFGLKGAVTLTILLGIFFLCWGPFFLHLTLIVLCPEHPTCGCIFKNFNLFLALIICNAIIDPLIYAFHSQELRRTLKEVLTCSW
5-hydroxytryptamine receptor 1B, sequence (P28222 whole entry): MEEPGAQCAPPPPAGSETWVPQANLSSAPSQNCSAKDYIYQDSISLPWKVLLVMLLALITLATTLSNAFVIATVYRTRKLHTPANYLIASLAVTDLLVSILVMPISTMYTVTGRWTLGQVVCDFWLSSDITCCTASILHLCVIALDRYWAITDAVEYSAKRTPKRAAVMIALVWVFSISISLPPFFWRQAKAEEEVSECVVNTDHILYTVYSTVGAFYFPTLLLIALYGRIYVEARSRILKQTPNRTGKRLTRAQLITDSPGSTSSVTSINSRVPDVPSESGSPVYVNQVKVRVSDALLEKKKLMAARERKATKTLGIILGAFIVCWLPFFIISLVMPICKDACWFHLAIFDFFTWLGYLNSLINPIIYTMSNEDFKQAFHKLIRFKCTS
Cytochrome P450 3A4, sequence (P08684 whole entry): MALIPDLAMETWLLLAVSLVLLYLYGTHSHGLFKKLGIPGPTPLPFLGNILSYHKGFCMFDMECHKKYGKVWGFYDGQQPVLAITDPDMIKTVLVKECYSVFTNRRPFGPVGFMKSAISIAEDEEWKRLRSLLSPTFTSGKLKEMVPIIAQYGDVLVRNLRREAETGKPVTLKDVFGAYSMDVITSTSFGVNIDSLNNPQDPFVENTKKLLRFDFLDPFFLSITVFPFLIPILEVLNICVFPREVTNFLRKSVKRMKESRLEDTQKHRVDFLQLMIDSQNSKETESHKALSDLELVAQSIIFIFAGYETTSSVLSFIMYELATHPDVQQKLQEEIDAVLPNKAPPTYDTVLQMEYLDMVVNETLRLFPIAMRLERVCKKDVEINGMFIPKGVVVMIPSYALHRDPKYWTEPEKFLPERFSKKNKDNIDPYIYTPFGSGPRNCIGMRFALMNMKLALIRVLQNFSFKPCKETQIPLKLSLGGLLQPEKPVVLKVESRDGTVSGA
Melanocortin receptor 5, sequence (P33032 whole entry): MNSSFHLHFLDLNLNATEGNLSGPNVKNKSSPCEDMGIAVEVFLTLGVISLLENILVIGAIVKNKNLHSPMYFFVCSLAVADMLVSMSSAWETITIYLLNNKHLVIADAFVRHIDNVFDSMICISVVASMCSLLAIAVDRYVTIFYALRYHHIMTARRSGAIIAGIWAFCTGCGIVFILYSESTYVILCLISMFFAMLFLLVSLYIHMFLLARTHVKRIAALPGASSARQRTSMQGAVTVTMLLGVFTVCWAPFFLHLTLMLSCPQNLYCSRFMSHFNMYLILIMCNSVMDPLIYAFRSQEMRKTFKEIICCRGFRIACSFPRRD
Melanocortin receptor 4, sequence (P32245 whole entry): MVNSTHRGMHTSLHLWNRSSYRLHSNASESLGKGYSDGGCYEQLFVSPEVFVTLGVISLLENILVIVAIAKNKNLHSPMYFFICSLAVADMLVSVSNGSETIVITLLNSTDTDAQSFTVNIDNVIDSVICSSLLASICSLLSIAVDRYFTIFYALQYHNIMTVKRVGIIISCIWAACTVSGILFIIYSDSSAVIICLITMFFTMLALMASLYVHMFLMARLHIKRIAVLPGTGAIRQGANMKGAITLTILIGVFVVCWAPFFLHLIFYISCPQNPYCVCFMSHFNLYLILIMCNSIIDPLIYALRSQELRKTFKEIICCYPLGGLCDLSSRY
Cytochrome P450 2C9, sequence (P11712 whole entry): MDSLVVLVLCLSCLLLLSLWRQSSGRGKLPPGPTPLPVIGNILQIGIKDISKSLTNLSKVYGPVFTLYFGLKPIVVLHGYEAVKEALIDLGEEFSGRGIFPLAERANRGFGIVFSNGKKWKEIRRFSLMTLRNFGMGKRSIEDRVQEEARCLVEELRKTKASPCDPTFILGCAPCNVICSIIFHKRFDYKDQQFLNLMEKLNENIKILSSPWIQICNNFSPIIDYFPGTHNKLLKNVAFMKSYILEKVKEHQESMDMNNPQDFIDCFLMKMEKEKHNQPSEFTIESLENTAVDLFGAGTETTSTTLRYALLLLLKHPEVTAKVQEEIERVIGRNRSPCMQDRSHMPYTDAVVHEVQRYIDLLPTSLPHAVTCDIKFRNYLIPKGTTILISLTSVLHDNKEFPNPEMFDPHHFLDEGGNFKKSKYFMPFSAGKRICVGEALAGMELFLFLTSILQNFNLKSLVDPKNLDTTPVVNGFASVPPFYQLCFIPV
Melanocortin receptor 3, sequence (P41968 whole entry): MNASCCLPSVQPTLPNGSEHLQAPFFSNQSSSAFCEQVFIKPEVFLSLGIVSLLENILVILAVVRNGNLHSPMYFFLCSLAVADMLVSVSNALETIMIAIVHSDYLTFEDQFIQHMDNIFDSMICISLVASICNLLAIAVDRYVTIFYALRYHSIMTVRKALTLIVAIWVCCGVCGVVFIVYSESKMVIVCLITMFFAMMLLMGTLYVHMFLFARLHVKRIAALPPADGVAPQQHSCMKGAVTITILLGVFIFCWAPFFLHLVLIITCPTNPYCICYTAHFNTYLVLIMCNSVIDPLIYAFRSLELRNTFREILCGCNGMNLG
Cytochrome P450 2D6, sequence (P10635 whole entry): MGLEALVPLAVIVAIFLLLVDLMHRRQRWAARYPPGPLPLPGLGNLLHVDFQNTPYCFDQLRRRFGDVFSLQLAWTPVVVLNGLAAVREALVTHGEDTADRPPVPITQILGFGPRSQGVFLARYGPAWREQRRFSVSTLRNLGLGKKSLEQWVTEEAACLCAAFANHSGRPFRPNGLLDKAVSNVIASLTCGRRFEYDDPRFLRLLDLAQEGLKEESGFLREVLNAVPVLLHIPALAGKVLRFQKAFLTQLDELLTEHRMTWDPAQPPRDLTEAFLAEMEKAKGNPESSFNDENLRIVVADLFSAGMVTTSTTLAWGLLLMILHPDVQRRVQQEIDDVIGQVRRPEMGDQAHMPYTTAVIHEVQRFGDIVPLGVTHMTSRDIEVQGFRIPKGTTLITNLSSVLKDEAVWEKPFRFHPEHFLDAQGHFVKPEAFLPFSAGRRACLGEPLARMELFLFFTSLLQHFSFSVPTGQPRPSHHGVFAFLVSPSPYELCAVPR

The pKi is the Ki on a negative log10 scale, so that one unit is a factor of ten. Read a low pKi as a high Ki. As for `CCOc1ncccc1-c1ccc(N2CCN(C(=O)c3ccc(Cl)cc3C(F)(F)F)C[C@H]2CC)c(C(=O)NCCN)c1`, the pKi in [1] is 8.96.
One may read the half-life as how long it takes for the measured level to halve. The low end stands for rapid decline, the high end for slow decline. For the compound `CCOc1ncccc1-c1ccc(N2CCN(C(=O)C3(C(F)(F)F)CCCC3)C[C@H]2CC)c(C(=O)N[C@@H]2CCN(C)C2)n1`, the half-life in data set [2] is 3.85 h; in [3], 0.383 h. Also, the pKi in data set [1] is 9.20.
For `CC[C@@H]1CN(C(=O)c2ccc(C(F)(F)F)cc2Cl)CCN1c1ccc(-c2ccccc2C#N)cc1C(=O)NCCN`, the pKi in data set [1] was 7.60.
The same measure, in the same setting: under `CCOc1ncccc1-c1ccc(N2CCN(C(=O)C3(C(F)(F)F)CCC3)C[C@H]2CC)c(C(=O)N[C@@H]2CN3CCC2CC3)n1` stands 8.36; under `CCOc1ccccc1-c1ccc(N2CCN(C(=O)c3ccc(Cl)cc3C(F)(F)F)C[C@H]2CC)c(C(=O)NCCN)c1`, 8.80.
As usually defined, the Cmax is the maximum level reached in the sampled fluid or tissue. What is called AUC(0-t) is the area under the concentration-time curve up to a stated or last time point. A low value points to less exposure. The compound `CCOc1ccccc1-c1ccc(N2CCN(C(=O)c3ccc(Cl)cc3Cl)C[C@H]2CC)c(C(=O)NCCN)c1` gave a Cmax in data set [4] of 2.8 nM. The compound also showed an AUC(0-t) in data set [5] of 0.0081 µM·h. Also, the pKi in [1] was 8.32.
As for `CCOc1ccccc1-c1ccc(N2CCN(C(=O)C3(C(F)(F)F)CCC3)C[C@H]2CC)c(C(=O)N[C@@H]2CCN(C)C2)n1`, the half-life in [2] came out at 3.85 h; in [3] it was 1.93 h. For the same compound, the pKi in data set [1] was 8.89.
For orientation: bioavailability means dose-corrected exposure relative to a reference, in per cent. A low value points to little systemic uptake. Regarding `CCOc1ncccc1-c1ccc(N2CCN(C(=O)c3ccc(Cl)cc3C(F)(F)F)C[C@H]2CC)c(C(=O)N[C@@H]2CCN(C)C2)n1`, the half-life in data set [2] is 0.717 h; in data set [8] it was 2.2 h; in data set [3] it was 0.583 h. Also, the bioavailability in data set [6] turned out to be 17%. For the same compound, the AUC(0-t) in [7] turned out to be 1.44 µM·h. Further, the pKi in [1] was 9.52.
For the compound `CCOc1ncccc1-c1ccc(N2CCN(C(=O)C34CCC(C(F)(F)F)(CC3)CC4)C[C@H]2CC)c(C(=O)N[C@@H]2CCN(C)C2)n1`, the half-life in data set [2] amounted to 0.533 h; in [3] it was 1.15 h. The compound further showed a pKi in [1] of 9.40.
Turning to `CCOc1ncccc1-c1ccc(N2CCN(C(=O)c3ccc(Cl)cc3C(F)(F)F)C[C@H]2CC)c(C(=O)NCCN(C)C)c1`, the pKi in [1] is 8.82.
Consider `CCOc1ncccc1-c1ccc(N2CCN(C(=O)c3ccc(Cl)cc3C(F)(F)F)C[C@H]2CC)c(C(=O)NCCN(C)C)c1F`, for which, in [1], the pKi is 9.05. This pKi lies 0.23 log units higher than the previous one.
On the same count and under the same terms, under `CCOc1ccccc1-c1ccc(N2CCN(C(=O)c3ccc(C(F)(F)F)cc3Cl)C[C@H]2CC)c(C(=O)NCCN)c1` stands 8.70.
Take `CCOc1ncccc1-c1ccc(N2CCN(C(=O)C3(C(F)(F)F)CCC3)C[C@H]2CC)c(C(=O)N[C@@H]2CCN(C)C2)n1`: the half-life was more than 11.6 h in [2] and 1.28 h in [3]. For the same compound, in data set [1], the pKi is 8.43.
`CCOc1ncccc1-c1ccc(N2CCN(C(=O)c3ccc(Cl)cc3C(F)(F)F)C[C@H]2CC)c(C(=O)NCCNC)c1`: the pKi in data set [1] was 9.02.
Turning to `CCOc1ncccc1-c1ccc(N2CCN(C(=O)c3ccc(Cl)cc3C(F)(F)F)C[C@H]2CC)c(C(=O)NCCN(C)C)n1`, the half-life was 0.35 h in [2], 1.6 h in data set [8] and 0.383 h in data set [3]. The compound also yielded a bioavailability in [6] of 8%. The same compound returned an AUC(0-t) in data set [7] of 0.349 µM·h. The compound also had a pKi in [1] of 9.41.
In [1], `CC[C@@H]1CN(C(=O)c2ccc(C(F)(F)F)cc2Cl)CCN1c1ccc(-c2cccc(F)c2Cl)cc1C(=O)NCCN` showed a pKi of 7.44.
For the compound `CC[C@@H]1CN(C(=O)c2ccc(C(F)(F)F)cc2Cl)CCN1c1ccc(-c2ccccc2Cl)cc1C(=O)NCCN`, the pKi in data set [1] was 7.68.
For `CCOc1ncccc1-c1ccc(N2CCN(C(=O)c3ccc(Cl)cc3C(F)(F)F)C[C@H]2CC)c(C(=O)N[C@@H]2CCNC2)n1`, the half-life in [2] is 5.78 h; in data set [8], 4 h; in data set [3] it was 3.85 h. The AUC(0-t) in data set [7] was 0.279 µM·h. In addition, the pKi in data set [1] was 9.49.
For `CC[C@@H]1CN(C(=O)c2ccc(C(F)(F)F)cc2Cl)CCN1c1ccc(-c2ccccc2F)cc1C(=O)NCCN`, the pKi in [1] is 7.33.
One may read the fraction unbound as free concentration divided by total concentration. Higher therefore signals much free substance. What is called pIC50 is the negative decadic logarithm of the IC50, by convention in mol/L. Low values mean a high IC50, high ones a low IC50. As a reminder, the Papp is a coefficient for how fast a substance crosses the barrier. One may read the Vd as the apparent volume that relates the amount in the body to the concentration in plasma or blood. A high value points to wide distribution into tissue. The clearance is the volume of plasma or blood freed of the substance per unit of time. Low readings indicate inefficient removal, high ones efficient removal. As a reminder, the efflux ratio is the permeability from basolateral to apical divided by that in the opposite direction, in the common usage. Broadly, the inhibition is the share of the control response that was lost under treatment. With `CCOc1ccccc1-c1ccc(N2CCN(C(=O)C3(C(F)(F)F)CCC3)C[C@H]2CC)c(C(=O)N[C@@H]2CN3CCC2CC3)n1` [ATUMELNANT], the half-life in data set [9] is 2.73 h; in data set [2], 3.85 h; in data set [3] it was 3.85 h; in [40], 9.55 h. For the same compound, the fraction unbound at 1 µM in data set [10] is 0.014; in data set [31] it was 0.132; in [46], 0.026. Also, the pIC50 in [11] is less than 5.00; in [13], less than 5.00; in data set [15] it was less than 5.00; in [17], less than 5.00; in data set [20] it was 6.12; in [21], less than 5.00. The negative logarithm of the IC50 (pIC50) in data set [24], in [26] and in [35] was less than 5.00 throughout. Further, the values for the AUC(0-t) in data set [12] and in [22] were 5.2 µM·h and 4.97 µM·h, respectively. Besides, the concentration at […] stood at 87.5 ng/mL in data set [14]; 1260 ng/mL in data set [28]; 14.1 ng/mL in data set [34]; 93.9 ng/mL in data set [39]; 1530 ng/mL in data set [47]. Further, the values for the Cmax in data set [16] and in data set [36] were 650 nM and 1220 nM, respectively. Also, in data set [18], the Papp was 1.9 ×10⁻⁶ cm/s. The concentration at 0.5 h in data set [19] was 127 ng/mL; in data set [25] it was 110 ng/mL; in data set [27] it was 1140 ng/mL; in data set [29], 0.927 ng/mL; in data set [43] it was 20 ng/mL; in [44] it was 1460 ng/mL. The compound also came in with a concentration at 0.5 h in data set [45] of 0.88 ng/mL. The Vd in [23] was 10.5 L/kg; in [33], 3.19 L/kg. For the same compound, the bioavailability in data set [30] is 47%; in data set [38] it was 100%. The clearance is 24.5 mL/min/kg in data set [32] and 14.2 mL/min/kg in [42]. Moreover, the efflux ratio in data set [37] amounted to 95. In data set [1], this compound showed a pKi of 8.68. For the same compound, in data set [41], the inhibition at 10 µM is more than 70%.

The values above are taken from ChEMBL document CHEMBL5344485, “Discovery of CRN04894: A Novel Potent Selective MC2R Antagonist” (ACS Med Chem Lett, 2024).
